US12391682B2, “Isoquinoline derivatives and their use for the treatment of parasitic infections” (Elanco Animal Health GmbH, priority 2019, dated 2025)

Experiments:
D. immitis Slo-1 = D. immitis Slo-1 (Dirofilaria immitis, UniProt I0DFK5); test: In Vitro Assay 2: D. immitis Slo-1, membrane potential measurement in stable recombinant CHO cell line; assay type: cell-based
[1] = tested on: Adult Nippostrongylus brasiliensis; test: In Vitro Assay 3: Nippostrongylus brasiliensis (NIPOBR), acetylcholine esterase readout; conditions: at 10 μg/ml (10 ppm), adult worms, read-out: activity (reduction of AChE compared to negative control)
Protocol: In Vitro Assay 3: Nippostrongylus brasiliensis (NIPOBR)
Adult Nippostrongylus brasiliensis were washed with saline buffer containing 100 U/ml penicillin, 0.1 mg/ml streptomycin and 2.5 μg/ml amphotericin B. Test compounds were dissolved in DMSO and worms were incubated in medium in a final concentration of 10 μg/ml (10 ppm). An aliquot of the medium was used to determine the acetylcholine esterase activity in comparison to a negative control. The principle of measuring acetylcholine esterase as readout for anthelmintic activity was described in Rapson et al (1986) and Rapson et al (1987).

Dirofilaria immitis = test: In Vitro Assay 5: Dirofilaria immitis (DIROIM L4), motility; conditions: 72 h, read-out: EC50 (reduction of motility in comparison to the negative control)
[2] = tested on: Dirofilaria immitis microfilariae; test: In Vitro Assay 4: Dirofilaria immitis microfilariae (DIROIM L1), motility; conditions: 72 h, read-out: EC50 (reduction of motility in comparison to the negative control)
C. elegans Slo-1a = C. elegans Slo-1a (Caenorhabditis elegans, UniProt Q95V25)
C. elegans Slo-1a, sequence (Q95V25 whole entry): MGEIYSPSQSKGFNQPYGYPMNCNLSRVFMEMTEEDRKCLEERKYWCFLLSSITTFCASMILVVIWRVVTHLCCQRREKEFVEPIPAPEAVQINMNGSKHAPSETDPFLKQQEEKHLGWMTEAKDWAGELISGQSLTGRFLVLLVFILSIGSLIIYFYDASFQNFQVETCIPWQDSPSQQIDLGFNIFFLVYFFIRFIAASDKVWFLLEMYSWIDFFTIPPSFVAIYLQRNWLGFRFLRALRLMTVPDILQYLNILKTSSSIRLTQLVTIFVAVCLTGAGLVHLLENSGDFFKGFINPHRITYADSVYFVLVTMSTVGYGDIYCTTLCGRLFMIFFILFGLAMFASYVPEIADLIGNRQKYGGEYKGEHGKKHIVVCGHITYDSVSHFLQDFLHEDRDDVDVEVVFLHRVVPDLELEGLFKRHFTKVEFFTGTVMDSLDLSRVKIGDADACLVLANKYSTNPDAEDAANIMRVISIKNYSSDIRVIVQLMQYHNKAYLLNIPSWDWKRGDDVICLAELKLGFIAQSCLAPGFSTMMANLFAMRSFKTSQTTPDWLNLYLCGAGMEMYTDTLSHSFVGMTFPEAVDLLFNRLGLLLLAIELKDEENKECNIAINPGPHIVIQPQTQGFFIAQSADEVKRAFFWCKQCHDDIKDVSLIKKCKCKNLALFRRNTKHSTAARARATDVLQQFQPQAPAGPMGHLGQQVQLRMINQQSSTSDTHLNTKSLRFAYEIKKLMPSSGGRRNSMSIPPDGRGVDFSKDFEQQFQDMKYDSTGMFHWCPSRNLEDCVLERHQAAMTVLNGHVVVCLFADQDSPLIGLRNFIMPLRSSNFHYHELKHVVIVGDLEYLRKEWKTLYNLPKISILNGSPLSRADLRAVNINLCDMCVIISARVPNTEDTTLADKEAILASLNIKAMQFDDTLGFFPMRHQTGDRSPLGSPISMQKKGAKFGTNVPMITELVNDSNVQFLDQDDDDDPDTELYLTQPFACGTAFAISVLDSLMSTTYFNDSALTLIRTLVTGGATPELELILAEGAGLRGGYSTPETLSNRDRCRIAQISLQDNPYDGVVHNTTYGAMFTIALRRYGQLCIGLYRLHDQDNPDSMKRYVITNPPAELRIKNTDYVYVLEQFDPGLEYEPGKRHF
Protocol: In Vitro Assay 1: C. elegans Slo-1a—Action at a Recombinant C. elegans Cell Line
Generation of a Stable Caenorhabditis elegans CHO Cell Line
A CHO cell line was obtained from ATCC, code ATCC CRL-9096. For transfection with plasmid DNA to express C. elegans Slo-1a (accession number AAL28102)CHO cells were passaged to 40% confluence before adding the transfection solution to the cell culture. The transfection solution included 300 μL OptiMEM (Life Technologies, Nr.: 31985), 2 μL (=6 μg) of plasmid DNA containing the C. elegans Slo 1a gene and 9 μL FugeneHD (Promega, Nr.: E2311), and was added to the cells prior to incubation for 48 hours at 37° C., 5% CO2. The transfection medium was exchanged for the selection medium which contains additional G418 (2 mg/ml, Invitrogen, Nr.: 10131) and the cells were seeded into 384 well plates (300 cells/well). […]
After starting the measurement of fluorescence using a FLIPR Tetra (Molecular Devices, Exc. 510-545 nm, Emm. 565-625 n), test compounds were added followed by the addition of KCl tyrode (final assay concentration: 70 mM KCl, 2 mM CaCl2, 1 mM MgCl2, 0.8 mM NaH2PO4, 5 mM Glucose, 28 mM Hepes, pH 7.4, including the voltage sensitive dye). […]
The data were evaluated by using the ActivityBase XLfit software (IDBS) for curve fitting and calculation of the half-maximal effective concentration (EC50) and are reported as negative decadic logarithm (pE50).

D. immitis Slo-1, sequence (I0DFK5 1-1119): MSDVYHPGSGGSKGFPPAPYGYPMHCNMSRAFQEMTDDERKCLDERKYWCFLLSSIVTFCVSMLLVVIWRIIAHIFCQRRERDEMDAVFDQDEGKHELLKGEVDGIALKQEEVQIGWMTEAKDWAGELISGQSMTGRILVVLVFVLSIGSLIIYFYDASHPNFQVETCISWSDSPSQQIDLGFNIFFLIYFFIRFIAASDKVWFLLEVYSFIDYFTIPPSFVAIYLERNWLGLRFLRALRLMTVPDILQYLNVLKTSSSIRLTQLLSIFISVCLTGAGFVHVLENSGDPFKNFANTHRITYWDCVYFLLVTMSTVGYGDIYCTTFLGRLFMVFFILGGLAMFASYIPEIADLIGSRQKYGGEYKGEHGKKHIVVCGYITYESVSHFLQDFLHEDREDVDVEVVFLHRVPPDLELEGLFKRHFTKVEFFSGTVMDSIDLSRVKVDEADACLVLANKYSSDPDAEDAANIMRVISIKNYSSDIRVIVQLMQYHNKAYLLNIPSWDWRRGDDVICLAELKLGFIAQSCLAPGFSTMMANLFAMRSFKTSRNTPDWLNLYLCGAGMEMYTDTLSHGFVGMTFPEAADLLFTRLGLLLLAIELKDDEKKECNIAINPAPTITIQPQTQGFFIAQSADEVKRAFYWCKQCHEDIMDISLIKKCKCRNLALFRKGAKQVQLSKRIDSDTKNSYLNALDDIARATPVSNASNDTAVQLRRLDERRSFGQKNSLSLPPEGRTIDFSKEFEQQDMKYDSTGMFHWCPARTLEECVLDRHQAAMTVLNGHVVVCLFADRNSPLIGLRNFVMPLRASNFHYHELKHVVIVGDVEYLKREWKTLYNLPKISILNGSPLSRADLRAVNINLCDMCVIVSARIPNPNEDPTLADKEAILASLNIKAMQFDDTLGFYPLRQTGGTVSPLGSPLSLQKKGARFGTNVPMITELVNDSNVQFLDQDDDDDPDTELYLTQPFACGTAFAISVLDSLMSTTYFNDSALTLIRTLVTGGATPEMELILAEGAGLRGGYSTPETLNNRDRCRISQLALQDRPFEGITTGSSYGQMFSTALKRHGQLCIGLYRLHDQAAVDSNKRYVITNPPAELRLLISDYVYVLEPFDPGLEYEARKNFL

Compound | EC50 (D. immitis Slo-1) [nM] | inhibition at 10 µg/mL [1] [%] | EC50 (Dirofilaria immitis) [µg/mL] | EC50 [2] [µg/mL] | EC50 (C. elegans Slo-1a) [nM]
O=C(N[C@H]1CCOc2ccccc21)c1ncc2c(-c3cc(F)cc(F)c3F)cccc2c1N1CCOCC1 [Example I-1, N-[(4S)-3,4-dihydro-2H-chromen-4-yl]-4-(morpholin-4-yl)-8-(2,3,5-trifluorophenyl)isoquinoline-3-carboxamide] | 3.16 to 31.6 | > 80 | < 0.1 | < 0.1 | –
Cc1c(C(=O)N[C@H]2CCOc3ccccc32)ncc2c(-c3cc(F)cc(F)c3F)cccc12 [Example I-2, N-[(4S)-3,4-dihydro-2H-chromen-4-yl]-4-methyl-8-(2,3,5-trifluorophenyl)isoquinoline-3-carboxamide] | 316 to 5010 | > 80 | < 0.1 | < 0.1 | –
CC(C)c1c(C(=O)N[C@H]2CCOc3ccccc32)ncc2c(-c3cc(F)cc(F)c3F)cccc12 [Example I-3, N-[(4S)-3,4-dihydro-2H-chromen-4-yl]-4-isopropyl-8-(2,3,5-trifluorophenyl)isoquinoline-3-carboxamide] | 31.6 to 316 | > 80 | < 0.1 | < 0.1 | –
CC(C)c1c(C(=O)N[C@H]2CCOc3ccccc32)ncc2c(-c3cc(Cl)cc(Cl)c3)cccc12 [Example I-4] | 31.6 to 316 | > 80 | < 0.1 | < 0.1 | –
Cc1c(C(=O)N[C@H]2CCc3ccccc32)ncc2c(-c3cc(F)cc(F)c3F)cccc12 [Example I-7] | 316 to 5010 | > 80 | < 1 | < 0.1 | –
O=C(N[C@H]1CCCc2ccccc21)c1ncc2c(-c3cc(Cl)cc(Cl)c3)cccc2c1N1CCOCC1 [Example I-8] | 316 to 5010 | > 80 | < 0.1 | < 0.1 | 3.16 to 31.6
O=C(N[C@H]1CCCc2ccccc21)c1ncc2c(-c3cc(F)cc(F)c3F)cccc2c1N1CCOCC1 [Example I-9] | 31.6 to 316 | > 80 | < 0.1 | < 0.1 | –
O=C(N[C@H]1CCOc2ccccc21)c1ncc2c(-c3cc(Cl)cc(Cl)c3)cccc2c1N1CCOCC1 [Example I-11] | 316 to 5010 | > 80 | < 0.1 | < 0.1 | –
CC(C)(C)c1cc(Cl)cc(-c2cccc3c(N4CCOCC4)c(C(=O)N[C@H]4CCOc5ccccc54)ncc23)c1 [Example I-12] | 316 to 5010 | > 80 | < 0.1 | < 0.1 | –
Cc1c(C(=O)N[C@H]2CCOc3ccccc32)ncc2c(-c3cc(Cl)cc(Cl)c3)cccc12 [Example I-13] | – | > 80 | < 1 | < 0.1 | 31.6 to 316
O=C(NC1CCSc2ccc(F)cc21)c1ncc2c(-c3cc(F)cc(F)c3F)cccc2c1N1CCOCC1 (centres unmarked) [Example I-15] | 316 to 5010 | – | < 0.1 | < 1 | –
O=C(N[C@H]1CCOc2ccccc21)c1cnc2c(Br)cccc2c1N1CCOCC1 [IC-1, 8-Bromo-N-[(4S)-3,4-dihydro-2H-chromen-4-yl]-4-(morpholin-4-yl)quinoline-3-carboxamide] | – | – | – | < 10 | –
Cc1c(C(=O)N[C@H]2CCOc3ccccc32)ncc2c(Br)cccc12 [IC-2, 8-Bromo-N-[(4S)-3,4-dihydro-2H-chromen-4-yl]-4-methylisoquinoline-3-carboxamide] | – | – | – | < 10 | –
CC(C)c1c(C(=O)N[C@H]2CCOc3ccccc32)ncc2c(Br)cccc12 [IC-3, 8-Bromo-N-[(4S)-3,4-dihydro-2H-chromen-4-yl]-4-isopropylisoquinoline-3-carboxamide] | – | – | – | < 10 | –
